According to patent US10738028B2, “Spiro three-membered ring, spiro five-membered ring peptide deformylase inhibitor and use thereof in antibacteria and anti-tumor” (priority 2016, dated 2020):

Experiments:
Format in all cases: cell-based
[1] = system: Enterococcus faecalis (EFA); assay: MIC, two-fold agar dilution (CLSI), clinical isolates
Outline: (§1)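 MIC values come from two-fold agar dilution run per CLSI antimicrobial susceptibility testing procedure.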

[2] = system: Enterococcus faecium (EFM); assay: as above
Outline: as §1

[3] = system: Escherichia coli (including ESBLs, non-ESBLs); assay: as above
Outline: as §1

[4] = system: Moraxella catarrhalis (BCA); assay: as above
Outline: as §1

[5] = system: Streptococcus pneoumoniae (SPN); assay: as above
Outline: as §1

[6] = system: methicillin-resistant Staphylococcus aureus (MRSA); assay: as above
Outline: as §1

[7] = system: methicillin-resistant Staphylococcus epidermidis (MRSE); assay: as above
Outline: as §1

[8] = system: methicillin-sensitive Staphylococcus aureus (MSSA); assay: as above
Outline: as §1

[9] = system: methicillin-sensitive Staphylococcus epidermidis (MSSE); assay: as above
Outline: as §1

[10] = system: HCT-116 colorectal cancer cell line; assay: CCK-8 proliferation inhibition; conditions: Homo sapiens, HCT-116, 72 h, concentration of 30 μM; 72 hours; CCK-8; read-out: HCT116 inhibition rate/%
Outline: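 2000 cells/well, McCoy's 5A + 10% newborn bovine serum; overnight attach, 37° C./5% CO2. Cpd from DMSO stock diluted in medium, 72 h. Readout: CCK-8 (1:10). Ctrl 1‰ DMSO.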

## CCCC[C@H](CC(=O)NO)C(=O)N1CC2(CC2)C[C@H]1C(=O)Nc1cnccn1 [Example 44]
[1]; clinical isolate EFA 15-1
  Anti-bacterial activity (MIC), strain EFA 15-1: > 32 µg/mL
[1]; clinical isolate EFA 15-2
  Anti-bacterial activity (MIC), strain EFA 15-2: > 32 µg/mL
[1]; clinical isolate EFA 15-3
  Anti-bacterial activity (MIC), strain EFA 15-3: > 32 µg/mL
[1]; clinical isolate EFA 15-4
  Anti-bacterial activity (MIC), strain EFA 15-4: > 32 µg/mL
[1]; clinical isolate EFA 15-5
  Anti-bacterial activity (MIC), strain EFA 15-5: > 32 µg/mL
[1]; clinical isolate EFA 15-6
  Anti-bacterial activity (MIC), strain EFA 15-6: > 32 µg/mL
[1]; clinical isolate EFA 15-9
  Anti-bacterial activity (MIC), strain EFA 15-9: 32 µg/mL
[2]; clinical isolate EFM 15-1
  Anti-bacterial activity (MIC), strain EFM 15-1: > 32 µg/mL
[2]; clinical isolate EFM 15-2
  Anti-bacterial activity (MIC), strain EFM 15-2: > 32 µg/mL
[2]; clinical isolate EFM 15-3
  Anti-bacterial activity (MIC), strain EFM 15-3: > 32 µg/mL
[2]; clinical isolate EFM 15-4
  Anti-bacterial activity (MIC), strain EFM 15-4: > 32 µg/mL
[2]; clinical isolate EFM 15-5
  Anti-bacterial activity (MIC), strain EFM 15-5: 1 µg/mL
[2]; clinical isolate EFM 15-6
  Anti-bacterial activity (MIC), strain EFM 15-6: 2 µg/mL
[3]; clinical isolate ECO+ 15-1
  Anti-bacterial activity (MIC), strain ECO+ 15-1: 32 µg/mL
[3]; clinical isolate ECO+ 15-2
  Anti-bacterial activity (MIC), strain ECO+ 15-2: > 32 µg/mL
[3]; clinical isolate ECO+ 15-3
  Anti-bacterial activity (MIC), strain ECO+ 15-3: > 32 µg/mL
[3]; clinical isolate ECO+ 15-4
  Anti-bacterial activity (MIC), strain ECO+ 15-4: 1 µg/mL
[3]; clinical isolate ECO− 15-1
  Anti-bacterial activity (MIC), strain ECO− 15-1: 32 µg/mL
[3]; clinical isolate ECO− 15-2
  Anti-bacterial activity (MIC), strain ECO− 15-2: > 32 µg/mL
[3]; clinical isolate ECO− 15-3
  Anti-bacterial activity (MIC), strain ECO− 15-3: > 32 µg/mL
[3]; clinical isolate ECO− 15-4
  Anti-bacterial activity (MIC), strain ECO− 15-4: > 32 µg/mL
[4]; clinical isolate BCA 14-1
  Anti-bacterial activity (MIC), strain BCA 14-1: 4 µg/mL
[4]; clinical isolate BCA 14-4
  Anti-bacterial activity (MIC), strain BCA 14-4: 4 µg/mL
[4]; clinical isolate BCA 14-5
  Anti-bacterial activity (MIC), strain BCA 14-5: 1 µg/mL
[4]; clinical isolate BCA 14-6
  Anti-bacterial activity (MIC), strain BCA 14-6: 2 µg/mL
[4]; clinical isolate BCA 14-7
  Anti-bacterial activity (MIC), strain BCA 14-7: 4 µg/mL
[4]; clinical isolate BCA 14-8
  Anti-bacterial activity (MIC), strain BCA 14-8: 4 µg/mL
[4]; clinical isolate BCA 14-10
  Anti-bacterial activity (MIC), strain BCA 14-10: 2 µg/mL
[5]; clinical isolate SPN 16-2
  Anti-bacterial activity (MIC), strain SPN 16-2: 1 µg/mL
[5]; clinical isolate SPN 16-4
  Anti-bacterial activity (MIC), strain SPN 16-4: 1 µg/mL
[6]; clinical isolate MRSA 15-1
  Anti-bacterial activity (MIC), strain MRSA 15-1: 0.5 µg/mL
[6]; clinical isolate MRSA 15-2
  Anti-bacterial activity (MIC), strain MRSA 15-2: 1 µg/mL
[6]; clinical isolate MRSA 15-3
  Anti-bacterial activity (MIC), strain MRSA 15-3: 1 µg/mL
[6]; clinical isolate MRSA 15-4
  Anti-bacterial activity (MIC), strain MRSA 15-4: 1 µg/mL
[7]; clinical isolate MRSE 15-1
  Anti-bacterial activity (MIC), strain MRSE 15-1: 1 µg/mL
[7]; clinical isolate MRSE 15-2
  Anti-bacterial activity (MIC), strain MRSE 15-2: 1 µg/mL
[7]; clinical isolate MRSE 15-3
  Anti-bacterial activity (MIC), strain MRSE 15-3: 1 µg/mL
[7]; clinical isolate MRSE 15-7
  Anti-bacterial activity (MIC), strain MRSE 15-7: 1 µg/mL
[8]; clinical isolate MSSA 15-3
  Anti-bacterial activity (MIC), strain MSSA 15-3: 0.5 µg/mL
[8]; clinical isolate MSSA 15-4
  Anti-bacterial activity (MIC), strain MSSA 15-4: 1 µg/mL
[8]; clinical isolate MSSA 15-5
  Anti-bacterial activity (MIC), strain MSSA 15-5: 1 µg/mL
[8]; clinical isolate MSSA 15-6
  Anti-bacterial activity (MIC), strain MSSA 15-6: > 32 µg/mL
[9]; clinical isolate MSSE 15-3
  Anti-bacterial activity (MIC), strain MSSE 15-3: 1 µg/mL
[9]; clinical isolate MSSE 15-4
  Anti-bacterial activity (MIC), strain MSSE 15-4: 1 µg/mL
[9]; clinical isolate MSSE 15-5
  Anti-bacterial activity (MIC), strain MSSE 15-5: 1 µg/mL
[9]; clinical isolate MSSE 15-6
  Anti-bacterial activity (MIC), strain MSSE 15-6: 1 µg/mL
[10]
  inhibition at 30 µM: 21%
